The subject of the first assay is NCI-H2170. The assay can be described thus: relative viability (nuclei count vs DMSO), 5 days (fraction); higher = more cells survive. Particulars: first compound 0.2 µM. In a few lines: (§1)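 Dosing by pin tool came one day after lung cancer cell lines were seeded in 1536-well plates, using either one drug or a fixed anchor-drug dose plus five library-drug doses (not always all listed) in √10 steps. After 5 days, nuclei were counted on 4× images. Relative viability is treated-well nuclei count divided by vehicle-well nuclei count, and values are medians of duplicate plates.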
For `COCC1(CO)C(=O)C2CCN1CC2` (stereo not drawn) [PRIMA-1MET] + CCNC(=O)c1noc(-c2cc(C(C)C)c(O)cc2O)c1-c1ccc(CN2CCOCC2)cc1 [Luminespib] (partner 0.01 µM), the relative viability was found to be 1.06.

With `COCC1(CO)C(=O)C2CCN1CC2` (stereo not drawn) [PRIMA-1MET] + COc1cccc2cc(-c3nc([C@H]4CC[C@H](C(=O)O)CC4)n4ncnc(N)c34)[nH]c12 [OSI-027] (partner 0.5 µM), the relative viability is 0.494.

`COCC1(CO)C(=O)C2CCN1CC2` (stereo not drawn) [PRIMA-1MET] + N=C(N)NC(=N)NCCc1ccccc1 [Phenformin] (partner 250 µM): the relative viability worked out at 0.418.

For `COCC1(CO)C(=O)C2CCN1CC2` (stereo not drawn) [PRIMA-1MET] + Nc1nc2[nH]cc(CCc3ccc(C(=O)N[C@@H](CCC(=O)O)C(=O)O)cc3)c2c(=O)[nH]1 [Pemetrexed] (partner 0.2 µM), the relative viability came to 0.271.

Take `COCC1(CO)C(=O)C2CCN1CC2` (stereo not drawn) [PRIMA-1MET] + Cc1nc(Nc2ncc(C(=O)Nc3c(C)cccc3Cl)s2)cc(N2CCN(CCO)CC2)n1 [Dasatinib] (partner 0.075 µM): the relative viability worked out at 0.554.

Staying with this assay, now noted: first compound 0.6325 µM.
For the compound `COCC1(CO)C(=O)C2CCN1CC2` (stereo not drawn) [PRIMA-1MET] + CCNC(=O)c1noc(-c2cc(C(C)C)c(O)cc2O)c1-c1ccc(CN2CCOCC2)cc1 [Luminespib] (partner 0.01 µM), the relative viability turned out to be 0.545.

In turn, `COCC1(CO)C(=O)C2CCN1CC2` (stereo not drawn) [PRIMA-1MET] + COc1cccc2cc(-c3nc([C@H]4CC[C@H](C(=O)O)CC4)n4ncnc(N)c34)[nH]c12 [OSI-027] (partner 0.5 µM) showed a relative viability of 0.634.

For the compound `COCC1(CO)C(=O)C2CCN1CC2` (stereo not drawn) [PRIMA-1MET] + N=C(N)NC(=N)NCCc1ccccc1 [Phenformin] (partner 250 µM), the relative viability was determined as 0.416.

`COCC1(CO)C(=O)C2CCN1CC2` (stereo not drawn) [PRIMA-1MET] + Nc1nc2[nH]cc(CCc3ccc(C(=O)N[C@@H](CCC(=O)O)C(=O)O)cc3)c2c(=O)[nH]1 [Pemetrexed] (partner 0.2 µM) gave a relative viability of 0.25.

On to `COCC1(CO)C(=O)C2CCN1CC2` (stereo not drawn) [PRIMA-1MET] + Cc1nc(Nc2ncc(C(=O)Nc3c(C)cccc3Cl)s2)cc(N2CCN(CCO)CC2)n1 [Dasatinib] (partner 0.075 µM), for which the relative viability worked out at 0.46.

Still in this assay, the particulars now being: first compound 2 µM.
For `COCC1(CO)C(=O)C2CCN1CC2` (stereo not drawn) [PRIMA-1MET] + CCNC(=O)c1noc(-c2cc(C(C)C)c(O)cc2O)c1-c1ccc(CN2CCOCC2)cc1 [Luminespib] (partner 0.01 µM), the relative viability amounted to 0.557.

For `COCC1(CO)C(=O)C2CCN1CC2` (stereo not drawn) [PRIMA-1MET] + COc1cccc2cc(-c3nc([C@H]4CC[C@H](C(=O)O)CC4)n4ncnc(N)c34)[nH]c12 [OSI-027] (partner 0.5 µM), the relative viability stood at 0.722.

Compound `COCC1(CO)C(=O)C2CCN1CC2` (stereo not drawn) [PRIMA-1MET] + N=C(N)NC(=N)NCCc1ccccc1 [Phenformin] (partner 250 µM) returned a relative viability of 0.38.

`COCC1(CO)C(=O)C2CCN1CC2` (stereo not drawn) [PRIMA-1MET] + Nc1nc2[nH]cc(CCc3ccc(C(=O)N[C@@H](CCC(=O)O)C(=O)O)cc3)c2c(=O)[nH]1 [Pemetrexed] (partner 0.2 µM) yielded a relative viability of 0.274.

Regarding `COCC1(CO)C(=O)C2CCN1CC2` (stereo not drawn) [PRIMA-1MET] + Cc1nc(Nc2ncc(C(=O)Nc3c(C)cccc3Cl)s2)cc(N2CCN(CCO)CC2)n1 [Dasatinib] (partner 0.075 µM), the relative viability was 0.497.

Still in this assay, the particulars now being: first compound 6.325 µM.
In turn, `COCC1(CO)C(=O)C2CCN1CC2` (stereo not drawn) [PRIMA-1MET] + CCNC(=O)c1noc(-c2cc(C(C)C)c(O)cc2O)c1-c1ccc(CN2CCOCC2)cc1 [Luminespib] (partner 0.01 µM) had a relative viability of 0.68.

Take `COCC1(CO)C(=O)C2CCN1CC2` (stereo not drawn) [PRIMA-1MET] + COc1cccc2cc(-c3nc([C@H]4CC[C@H](C(=O)O)CC4)n4ncnc(N)c34)[nH]c12 [OSI-027] (partner 0.5 µM): the relative viability is 0.718.

In the case of `COCC1(CO)C(=O)C2CCN1CC2` (stereo not drawn) [PRIMA-1MET] + N=C(N)NC(=N)NCCc1ccccc1 [Phenformin] (partner 250 µM), the relative viability was determined as 0.405.

The compound `COCC1(CO)C(=O)C2CCN1CC2` (stereo not drawn) [PRIMA-1MET] + Nc1nc2[nH]cc(CCc3ccc(C(=O)N[C@@H](CCC(=O)O)C(=O)O)cc3)c2c(=O)[nH]1 [Pemetrexed] (partner 0.2 µM) registered a relative viability of 0.258.

With `COCC1(CO)C(=O)C2CCN1CC2` (stereo not drawn) [PRIMA-1MET] + Cc1nc(Nc2ncc(C(=O)Nc3c(C)cccc3Cl)s2)cc(N2CCN(CCO)CC2)n1 [Dasatinib] (partner 0.075 µM), the relative viability was 0.604.

The same assay, now with this note: first compound 20 µM.
As to `COCC1(CO)C(=O)C2CCN1CC2` (stereo not drawn) [PRIMA-1MET] + CCNC(=O)c1noc(-c2cc(C(C)C)c(O)cc2O)c1-c1ccc(CN2CCOCC2)cc1 [Luminespib] (partner 0.01 µM), the relative viability stood at 0.667.

`COCC1(CO)C(=O)C2CCN1CC2` (stereo not drawn) [PRIMA-1MET] + COc1cccc2cc(-c3nc([C@H]4CC[C@H](C(=O)O)CC4)n4ncnc(N)c34)[nH]c12 [OSI-027] (partner 0.5 µM) gave a relative viability of 0.713.

As to `COCC1(CO)C(=O)C2CCN1CC2` (stereo not drawn) [PRIMA-1MET] + N=C(N)NC(=N)NCCc1ccccc1 [Phenformin] (partner 250 µM), the relative viability turned out to be 0.376.

For `COCC1(CO)C(=O)C2CCN1CC2` (stereo not drawn) [PRIMA-1MET] + Nc1nc2[nH]cc(CCc3ccc(C(=O)N[C@@H](CCC(=O)O)C(=O)O)cc3)c2c(=O)[nH]1 [Pemetrexed] (partner 0.2 µM), the relative viability is 0.268.

For `COCC1(CO)C(=O)C2CCN1CC2` (stereo not drawn) [PRIMA-1MET] + Cc1nc(Nc2ncc(C(=O)Nc3c(C)cccc3Cl)s2)cc(N2CCN(CCO)CC2)n1 [Dasatinib] (partner 0.075 µM), the relative viability was determined as 0.586.

In the next assay the test system is NCI-H1666. Described as above. Particulars: first compound 0.2 µM. In a few lines: as §1
Turning to `COCC1(CO)C(=O)C2CCN1CC2` (stereo not drawn) [PRIMA-1MET] + CCNC(=O)c1noc(-c2cc(C(C)C)c(O)cc2O)c1-c1ccc(CN2CCOCC2)cc1 [Luminespib] (partner 0.01 µM), the relative viability was found to be 1.02.

For the compound `COCC1(CO)C(=O)C2CCN1CC2` (stereo not drawn) [PRIMA-1MET] + COc1cccc2cc(-c3nc([C@H]4CC[C@H](C(=O)O)CC4)n4ncnc(N)c34)[nH]c12 [OSI-027] (partner 0.5 µM), the relative viability worked out at 0.791.

In the case of `COCC1(CO)C(=O)C2CCN1CC2` (stereo not drawn) [PRIMA-1MET] + N=C(N)NC(=N)NCCc1ccccc1 [Phenformin] (partner 250 µM), the relative viability was found to be 0.558.

In turn, `COCC1(CO)C(=O)C2CCN1CC2` (stereo not drawn) [PRIMA-1MET] + Nc1nc2[nH]cc(CCc3ccc(C(=O)N[C@@H](CCC(=O)O)C(=O)O)cc3)c2c(=O)[nH]1 [Pemetrexed] (partner 0.2 µM) displayed a relative viability of 0.949.

For `COCC1(CO)C(=O)C2CCN1CC2` (stereo not drawn) [PRIMA-1MET] + Cc1nc(Nc2ncc(C(=O)Nc3c(C)cccc3Cl)s2)cc(N2CCN(CCO)CC2)n1 [Dasatinib] (partner 0.075 µM), the relative viability is 0.801.

The same assay, now with this note: first compound 0.6325 µM.
As to `COCC1(CO)C(=O)C2CCN1CC2` (stereo not drawn) [PRIMA-1MET] + CCNC(=O)c1noc(-c2cc(C(C)C)c(O)cc2O)c1-c1ccc(CN2CCOCC2)cc1 [Luminespib] (partner 0.01 µM), the relative viability was 0.714.

`COCC1(CO)C(=O)C2CCN1CC2` (stereo not drawn) [PRIMA-1MET] + COc1cccc2cc(-c3nc([C@H]4CC[C@H](C(=O)O)CC4)n4ncnc(N)c34)[nH]c12 [OSI-027] (partner 0.5 µM) came in with a relative viability of 0.87.

`COCC1(CO)C(=O)C2CCN1CC2` (stereo not drawn) [PRIMA-1MET] + N=C(N)NC(=N)NCCc1ccccc1 [Phenformin] (partner 250 µM) displayed a relative viability of 0.548.
